The subject of data set [1] is dogs. As to the kind of experiment: Emesis after oral administration. The settings on record: for emetic activity on oral administration: oral administration to animals, dose not stated; for dogs showing emesis: 20 mg/kg oral capsule, within 5 hours after administration. Type of data set: in vivo, dog. As for the experimental part: Another unexpected substantial advantage is that the (S) enantiomer provides a substantial reduction in emesis when administered to an animal orally. By the term “emesis” is meant vomiting. Generally, an emetic substance elicits emesis in less than 24 hours after administration, usually less than 8 hours, more usually less than 2 hours.

The test system of data set [2] is dogs. The settings on record: 10 mg/kg in dogs.
The subject of data set [3] is cat fleas (Ctenocephalides felis). As to the kind of experiment: Oral efficacy against cat fleas on infested dogs. Type of data set: in vivo.
In data set [4] the test system is brown dog ticks (Rhipicephalus sanguineus). As to the kind of experiment: Oral efficacy against brown dog ticks on infested dogs. The settings on record: for ticks remaining: 23 days after administration.

`N#Cc1nn(-c2c(Cl)cc(C(F)(F)F)cc2Cl)c(N)c1[S+]([O-])C(F)(F)F` (racemic) [fipronil, 5-amino-3-cyano-1-(2,6-dichloro-4-trifluoromethylphenyl)-4-trifluoromethylsulfinylpyrazole]: the “emetic activity on oral administration” value in the data set with dogs [1] was “causes emesis”.
The mortality is the percentage killed. Read a high mortality as fewer survivors. For `CC(=O)Nc1c([S@@+]([O-])C(F)(F)F)c(C#N)nn1-c1c(Cl)cc(C(F)(F)F)cc1Cl` (single isomer, unassigned) [5-acetylamino (R) enantiomer], the mortality in the data set with dogs [2] came out at 33%.
In the case of `N#Cc1nn(-c2c(Cl)cc(C(F)(F)F)cc2Cl)c(N)c1[S@+]([O-])C(F)(F)F` [Compound B, (S)-5-amino-3-cyano-1-(2,6-dichloro-4-trifluoromethylphenyl)-4-trifluoromethylsulfinylpyrazole], the “per cent (%) mortality of the arthropods, Flea” value (shortened to “per cent (%) mortality … Flea”) amounted to 100% in data set [3] (1 mg/kg oral, 1 DAT); 100% in data set [3] (1 mg/kg oral, 9 DAT); 90% in data set [3] (1 mg/kg oral, 16 DAT); 79% in data set [3] (1 mg/kg oral, 23 DAT); 100% in data set [3] (3 mg/kg oral, 1 DAT); 98% in data set [3] (3 mg/kg oral, 9 DAT). Further, the “per cent (%) mortality … Flea” value in data set [3] (3 mg/kg oral, 16 DAT) came to 67%; in data set [3] (3 mg/kg oral, 23 DAT) it was 50%; in data set [3] (10 mg/kg oral, 1 DAT), 100%; in data set [3] (10 mg/kg oral, 9 DAT), 99%; in data set [3] (10 mg/kg oral, 16 DAT) it was 87%; in data set [3] (10 mg/kg oral, 23 DAT), 83%. The “per cent (%) mortality … Flea” value in data set [3] (20 mg/kg oral capsule, 1 DAT) stood at 100%; in data set [3] (20 mg/kg oral capsule, 9 DAT), 96%; in data set [3] (20 mg/kg oral capsule, 16 DAT) it was 86%; in data set [3] (20 mg/kg oral capsule, 23 DAT), 88%; in data set [3] (20 mg/kg oral capsule, 31 DAT) it was 84%. The same molecule came in with a dogs showing emesis in the data set with dogs [1] of 50%. Further, the “emetic activity on oral administration” value in the data set on dogs [1] is recorded as “lower emetic activity”. In addition, in the data set on dogs [1] (oral, dogs, at any rate (1, 3, 10 mg/kg)), the symptoms of emesis result is “substantially no symptoms of emesis”. Besides, the “per cent (%) mortality of the arthropods, Tick” value in data set [4] (1 mg/kg oral, 1 DAT) was 100%; in data set [4] (1 mg/kg oral, 9 DAT) it was 100%; in data set [4] (1 mg/kg oral, 16 DAT) it was 87%; in data set [4] (1 mg/kg oral, 23 DAT), 85%; in data set [4] (3 mg/kg oral, 1 DAT), 98%; in data set [4] (3 mg/kg oral, 9 DAT), 99%. Besides, the “per cent (%) mortality of the arthropods, Tick” value in data set [4] (3 mg/kg oral, 16 DAT) came out at 75%; in data set [4] (3 mg/kg oral, 23 DAT) it was 63%; in data set [4] (10 mg/kg oral, 1 DAT) it was 99%; in data set [4] (10 mg/kg oral, 9 DAT), 100%; in data set [4] (10 mg/kg oral, 16 DAT), 85%; in data set [4] (20 mg/kg oral capsule, 1 DAT) it was 99%. For the same molecule, the “per cent (%) mortality of the arthropods, Tick” value in data set [4] (20 mg/kg oral capsule, 9 DAT) turned out to be 97%; in data set [4] (20 mg/kg oral capsule, 16 DAT), 87%; in data set [4] (20 mg/kg oral capsule, 23 DAT), 86%; in data set [4] (20 mg/kg oral capsule, 31 DAT), 92%. For the same molecule, the “per cent (%) mortality of the arthropods, Tick (effectiveness)” value in data set [4] (10 mg/kg oral, 23 DAT) turned out to be 85%. The molecule further yielded a ticks remaining in data set [4] (10 mg/kg oral) of 15%.
On to `N#Cc1nn(-c2c(Cl)cc(C(F)(F)F)cc2Cl)c(N)c1[S@@+]([O-])C(F)(F)F` [Compound C, (R)-5-amino-3-cyano-1-(2,6-dichloro-4-trifluoromethylphenyl)-4-trifluoromethylsulfinylpyrazole], for which the “per cent (%) mortality … Flea” value in data set [3] (1 mg/kg oral, 1 DAT) was found to be 100%; in data set [3] (1 mg/kg oral, 9 DAT), 100%; in data set [3] (1 mg/kg oral, 16 DAT) it was 76%; in data set [3] (1 mg/kg oral, 23 DAT) it was 72%; in data set [3] (3 mg/kg oral, 1 DAT) it was 100%; in data set [3] (3 mg/kg oral, 9 DAT), 78%. In addition, the “per cent (%) mortality … Flea” value in data set [3] (3 mg/kg oral, 16 DAT) is 72%; in data set [3] (3 mg/kg oral, 23 DAT), 64%; in data set [3] (10 mg/kg oral, 1 DAT), 100%; in data set [3] (10 mg/kg oral, 9 DAT), 95%; in data set [3] (10 mg/kg oral, 16 DAT) it was 72%; in data set [3] (10 mg/kg oral, 23 DAT), 86%. The “per cent (%) mortality … Flea” value in data set [3] (20 mg/kg oral capsule, 1 DAT) was found to be 100%; in data set [3] (20 mg/kg oral capsule, 9 DAT), 86%; in data set [3] (20 mg/kg oral capsule, 16 DAT) it was 69%; in data set [3] (20 mg/kg oral capsule, 23 DAT), 67%; in data set [3] (20 mg/kg oral capsule, 31 DAT), 69%. Also, the “animals showing emesis symptoms” value with dogs [1] (3 mg/kg oral, dogs, after 2 hours) amounted to 20%; in the data set with dogs [1] (10 mg/kg oral, dogs, after 1 hour) it was 40%; with dogs [1] (10 mg/kg oral, dogs, after 3 hours) it was 20%. Also, in the data set on dogs [1], the dogs showing emesis came to 90%. The “per cent (%) mortality of the arthropods, Tick” value in data set [4] (1 mg/kg oral, 1 DAT) is on record as 100%; in data set [4] (1 mg/kg oral, 9 DAT), 100%; in data set [4] (1 mg/kg oral, 16 DAT), 66%; in data set [4] (1 mg/kg oral, 23 DAT), 78%; in data set [4] (3 mg/kg oral, 1 DAT), 93%; in data set [4] (3 mg/kg oral, 9 DAT) it was 89%. The “per cent (%) mortality of the arthropods, Tick” value in data set [4] (3 mg/kg oral, 16 DAT) is 71%; in data set [4] (3 mg/kg oral, 23 DAT), 65%; in data set [4] (10 mg/kg oral, 1 DAT), 97%; in data set [4] (10 mg/kg oral, 9 DAT), 97%; in data set [4] (10 mg/kg oral, 16 DAT), 71%; in data set [4] (20 mg/kg oral capsule, 1 DAT), 97%. Also, the “per cent (%) mortality of the arthropods, Tick” value in data set [4] (20 mg/kg oral capsule, 9 DAT) stood at 96%; in data set [4] (20 mg/kg oral capsule, 16 DAT), 85%; in data set [4] (20 mg/kg oral capsule, 23 DAT), 77%; in data set [4] (20 mg/kg oral capsule, 31 DAT), 81%. Moreover, the “per cent (%) mortality of the arthropods, Tick (effectiveness)” value in data set [4] (10 mg/kg oral, 23 DAT) was found to be 71%. In data set [4] (10 mg/kg oral), this molecule displayed a ticks remaining of 29%.

(Values after patent US6346542B1, “Pesticidal composition comprising enantiomeric form of fipronil” (priority 1999, dated 2002).)
